Source: patent publication US5486516A, “Furopyrimidine derivatives” (DowElanco, priority 1993, dated 1996)

Legend:
[1] = test system: Twospotted spider mites (Tetranychus urticae Koch); test: Mite/insect screen, twospotted spider mites; type: in vivo; conditions: Tetranychus urticae, sprayed leaves, read-out: SM results (percent mortality); for mortality at 400 ppm: rate 400 ppm; for mortality at 200 ppm: rate 200 ppm
Experimental: (§1) The compounds of Examples were tested for miticidal and insecticidal activity in the following mite/insect screen.
(§2) Each test compound was formulated by dissolving the compound in acetone/alcohol (50:50) mixture containing 23 g of "TOXIMUL R" (sulfonate/nonionic emulsifier blend) and 13 g of "TOXIMUL S" (sulfonate/nonionic emulsifier blend) per liter. These mixtures were then diluted with water to give the indicated concentrations.
(§3) Twospotted spider mites (Tetranychus urticae Koch) and melon aphids (Aphis gossvpii Glover) were introduced on squash cotyledons and allowed to establish on both leaf surfaces. Other plants in the same treatment pot were left uninfested. The leaves were then sprayed with 5 ml of test solution using a DeVilbiss atomizing sprayer at 10 psi. Both surfaces of the leaves were covered until runoff, and then allowed to dry for one hour. Two uninfested leaves were then excised and placed into a Petri dish containing larval southern armyworm (Spodopetra eridania Cramer).
(§4) After standard exposure periods, percent mortality and phytotoxicity were evaluated. […] The following abbreviations are used in Table 3:
SM refers to twospotted spider mites

[2] = test system: Erysiphe graminis tritici (powdery mildew); test: Plant pathology screen (Test 1), powdery mildew on wheat; conditions: Blumeria graminis, in Triticum aestivum, foliar, read-out: POWD MDEW control rating
Experimental: (§5) The test compounds were formulated for application by dissolving 50 mg of the compound into 1.25 ml of solvent. The solvent was prepared by mixing 50 ml of "Tween 20" (polyoxyethylene (20) sorbitan monolaurate emulsifier) with 475 ml of acetone and 475 ml of ethanol. The solvent/compound solution was diluted to 125 ml with deionized water. The resulting formulation contains 400 ppm test chemical. Lower concentrations were obtained by serial dilution with the solvent-surfactant mixture.
The formulated test compounds were applied by foliar spray.
(§6) The formulated technical compounds were sprayed on all foliar surfaces of the host plants (or cut berry) to past run-off. Single pots of each host plant were placed on raised, revolving pedestals in a fume hood. Test solutions were sprayed on all foliar surfaces. All treatments were allowed to dry and the plants were inoculated with the appropriate pathogens within 2-4 hours.
(§7) The effectiveness of test compounds in controlling disease was rated using the following scale.

[3] = test system: Puccinia recondita tritici (leaf rust); test: Plant pathology screen (Test 1), leaf rust on wheat; conditions: in Triticum aestivum, foliar, read-out: LEAF RUST control rating
[4] = test system: Botrytis cinerea (gray mold); test: Plant pathology screen (Test 1), gray mold on grape berries; conditions: read-out: GRAY MOLD control rating
[5] = test system: Southern corn rootworm (Diabrotica undecimpuctata howardi Barber); test: Mite/insect screen, corn rootworm; type: in vivo; conditions: Diabrotica, soil, read-out: CRW results (percent mortality); for mortality at 24 ppm: CRW rate 24.00 ppm; for mortality at 12 ppm: CRW rate 12.00 ppm
Experimental: as §1, §2
Activity on Southern corn rootworm (Diabrotica undecimpuctata howardi Barber) was evaluated by adding two ml of tap water, a presoaked corn seed, and 15 g of dry sandy soil to a one ounce plastic container. The soil was treated with 1 mL of test solution containing a predetermined concentration of test compound. After six to 12 hours of drying, five 2-3 instar corn rootworm larvae were added to the individual cups, which were then capped and held at 23° C.
as §4
CRW refers to corn rootworm

[6] = test system: melon aphids (Aphis gossvpii Glover); test: Mite/insect screen, melon aphids; type: in vivo; conditions: Aphis, sprayed leaves, read-out: MA results (percent mortality); for mortality at 400 ppm: rate 400 ppm; for mortality at 200 ppm: rate 200 ppm
Experimental: as §1, §2, §3, §4
MA refers to melon aphids.

[7] = test system: Pyricularia oryzae (rice blast); test: whole plant or invertebrate; type: in vivo; conditions: foliar, read-out: RICE BLAST control rating
[8] = test system: southern armyworm (Spodopetra eridania Cramer); test: Mite/insect screen, Southern armyworm; type: in vivo; conditions: Spodoptera eridania, sprayed leaves, read-out: SAW results (percent mortality); for mortality at 400 ppm: rate 400 ppm; for mortality at 200 ppm: rate 200 ppm
Experimental: as §1, §2, §3, §4
SAW refers to Southern armyworm

[9] = test system: Pseudoperonospora cubensis (downy mildew); test: Plant pathology screen (Test 1), downy mildew on squash; conditions: foliar, read-out: DOWN MDEW control rating
Experimental: as §5
The formulated test compounds were applied by foliar spray. The following plant pathogens and their corresponding plants were employed.
as §6, §7

| SMILES | mortality at 400 ppm [1] [%] | pest or weed control at 400 µg/mL [2] [%] | pest or weed control at 400 µg/mL [3] [%] | pest or weed control at 400 µg/mL [4] [%] | mortality at 24 ppm [5] [%] | mortality at 400 ppm [6] [%] | pest or weed control at 400 µg/mL [7] [%] | mortality at 400 ppm [8] [%] | pest or weed control at 400 µg/mL [9] [%] | mortality at 200 ppm [1] [%] | mortality at 12 ppm [5] [%] | mortality at 200 ppm [6] [%] | mortality at 200 ppm [8] [%] |
| --- | --- | --- | --- | --- | --- | --- | --- | --- | --- | --- | --- | --- | --- |
| COc1ccc(CCNc2ncnc3oc(C)cc23)cc1 [Example 4, N-(2-(4-methoxyphenyl)ethyl]-6-methylfuro(2,3-d]pyrimidin-4-amine] | 0 | 0 to 19 | 90 to 100 | 0 to 19 | 0 | 0 | 20 to 89 | 0 | 0 to 19 |  |  |  |  |
| Cc1ccccc1Oc1ncnc2oc(C)c(C)c12 [Example 29, 5,6-dimethyl-4-(2-methylphenoxy)furo[2,3-d]pyrimidine] | 0 | 20 to 89 | 20 to 89 | 0 to 19 | 0 | 0 | 20 to 89 | 0 | 20 to 89 | 0 | 0 | 0 | 0 |
| Cc1oc2ncnc(NCCc3ccc(OCC(F)(F)F)cc3)c2c1C [Example 73, 5,6-dimethyl-N-[2-[4-(2,2,2-trifluoroethoxy)phenyl]ethyl]furo[2,3-d]pyrimidin-4-amine] | 0 | 0 to 19 | 20 to 89 | 0 to 19 | 0 | 90 | 0 to 19 | 100 | 20 to 89 |  |  |  |  |
| Cc1oc2ncnc(OCCc3ccc(Cl)cc3)c2c1C [Example 53, 4-[2-(4-chlorophenyl)ethoxy]-5,6-dimethylfuro[2,3-d]pyrimidine] | 30 | 20 to 89 | 90 to 100 | 0 to 19 | 0 | 60 | 20 to 89 | 0 | 0 to 19 | 0 | 0 | 0 | 0 |
| COc1ccc(CCOc2ncnc3oc(C)cc23)cc1 [Example 40, 6-methyl-4-[2-(4-methoxyphenyl)ethoxy]furo[2,3-d]pyrimidine] | 20 | 20 to 89 | 90 to 100 | 0 to 19 | 0 | 80 | 0 to 19 | 0 | 90 to 100 | 0 | 0 | 0 | 0 |
| Cc1oc2ncnc(NCCc3ccccc3)c2c1C [Example 12, 5,6-dimethyl-N-(2-phenylethyl)furo[2,3-d]pyrimidin-4-amine] | 0 | 0 to 19 | 90 to 100 | 0 to 19 | 0 | 0 | 20 to 89 | 0 | 90 to 100 | 0 | 0 | 0 | 0 |
| Fc1ccc(Oc2ncnc3oc4c(c23)CCCC4)cc1 [Example 34, 4-(4-fluorophenyloxy)-5,6,7,8-tetrahydrobenzofuro[2,3-d]pyrimidine] | 0 | 0 to 19 | 20 to 89 |  | 0 | 0 | 0 to 19 | 0 | 0 to 19 | 0 | 0 | 0 | 0 |
| Cc1oc2ncnc(OCCc3ccc(OCC(F)(F)F)cc3)c2c1C [Example 78] | 0 |  |  |  | 0 | 100 |  | 100 |  | 20 | 0 | 90 | 0 |
| Cc1oc2ncnc(Oc3ccc(OC(F)(F)F)cc3)c2c1C [Example 32, 5,6-dimethyl-4-[4-(trifluoromethoxy)phenoxy]furo[2,3-d]pyrimidine] | 0 | 0 to 19 | 0 to 19 |  | 0 | 0 | 0 to 19 | 0 | 0 to 19 | 0 | 0 | 0 | 0 |
| COc1ccccc1CCNc1ncnc2occ(C)c12 [Example 35, 5-methyl-N-[2,(2-methoxyphenyl)ethyl]furo[2,3-d]pyrimidin-4-amine] | 0 | 0 to 19 | 90 to 100 |  | 0 | 30 | 0 to 19 | 0 | 20 to 89 | 0 | 0 | 0 | 0 |
| COc1cccc(CCNc2ncnc3occ(C)c23)c1 [Example 33, 5-methyl-N-[2-(3-methoxyphenyl)ethyl]furo[2,3-d]pyrimidin-4-amine] | 0 | 90 to 100 | 90 to 100 |  | 0 | 0 | 20 to 89 | 0 | 90 to 100 | 80 | 0 | 40 | 0 |
| COc1ccc(CCn2cnc3oc(C)c(C)c3c2=N)cc1 [Example 80, 3-[2-(4-methoxyphenyl)ethyl]-5,6-dimethylfuro[2,3-d]pyrimidin-4(3H)-imine] | 0 | 0 to 19 | 0 to 19 | 0 to 19 | 0 | 0 | 0 to 19 | 0 |  | 0 | 0 | 0 | 0 |
| Cc1oc2ncnc(Oc3ccc(C#N)cc3)c2c1C [Example 36, 4-[(5,6-dimethylfuro[2,3-d]pyrimidin-4-yl)oxy]benzonitrile] | 0 | 0 to 19 | 0 to 19 |  | 0 | 0 | 0 to 19 | 0 | 0 to 19 | 0 | 0 | 0 | 0 |
| Cc1oc2ncnc(Oc3ccccc3C#N)c2c1C [Example 37, 2-[(5,6-dimethylfuro[2,3-d]pyrimidin-4-yl)oxy]benzonitrile] | 0 | 0 to 19 | 0 to 19 |  | 0 | 0 | 0 to 19 | 0 | 20 to 89 | 90 | 0 | 0 | 0 |
